Experimental data taken from patent US20050203071A1, “Use of carbon-2-modified-19-nor-vitamin d analogs to induce the formation of new bone” (priority 2003, published 2005).
Read-outs that look alike come from different tables or passages of the source.

Assays:
[1] = test system: human osteoblast cultures; test: bone nodule formation in vitro in human osteoblast cultures (Von Kossa stain); assay type: cell-based; conditions: for stimulation of osteoblast cultures to form mineralized bone, Von Kossa stain (FIG. 2): different concentrations, human osteoblast cultures
Description: Human bone samples discarded after surgical procedures from patients undergoing hip/knee replacement surgeries are obtained under an approved IRB protocol (Protocol #2001-055) and processed as described below. These bone pieces are otherwise routinely discarded as waste material during surgery.
The bone pieces are thoroughly washed and cleaned under sterile conditions using phosphate-buffered saline (PBS). These pieces are then cut to obtain smaller pieces (1-2 mm^3) and subjected to enzymatic digestion process to isolate osteoblasts as described below.
Osteoblastic cells are obtained from the bone pieces by collagenase digestion. Briefly, the bone samples are washed twice in PBS and dissected in about 1 mm^3 size fragments which are then sequentially digested in trypsin (1 mg/mL) for ten minutes, followed by dispase (2 mg/mL) for twenty minutes, and bacterial collagenase [Collagenase A] (3 mg/mL) twice for thirty minutes in PBS at 37° C. in a water bath. Cells released by collagenase digestion are then washed, counted and grown to sub-confluence in 25 cm^2 cell culture flasks in 1:1 Ham's F12/Dulbecco's modification of Eagle's medium (DMEM) supplemented with 10% fetal bovine serum. Cells are cultured at 37° C. in a humidified atmosphere of 5% CO2/95% air. Medium changes are made every 2-3 days and cells are cultured until they are 80% confluent. Cells are then trypsinized, washed and frozen from early passages for evaluation using techniques as described below.
In order to evaluate the ability of osteoblasts to form bone nodules in vitro, cells are cultured in 6 well plates at 1-3×10^5 cells/well. Cells are cultured in the presence of either 1,25-(OH)2D3 or vitamin D analogs at various doses for 7 days. Complete medium changes are carried out twice during the 7-day period and the medium is supplemented with fresh compounds (either 1,25-(OH)2D3 or 2-methylene-19-nor-(20S)-1α,25-dihydroxyvitamin D3—2MD) during each medium change. At days 10 and 13, complete medium changes are carried out and the compounds are replaced by treatment with ascorbic acid (50 μg/ml) and β-glycerol phosphate (10 mM). A third dose of ascorbic acid and β-glycerol phosphate is added to the cultures on day 15 if needed. Following the culture period, cells are stained using the Von Kossa technique. Briefly, cells are stained with 5% silver nitrate for 30 minutes in the dark, rinsed with distilled water, reduced with sodium carbonate/formaldehyde solution for 2 minutes and washed under tap water for 10 minutes. The cells are then stained with methyl green pyronin for 20 minutes, washed with water followed by two washes of absolute alcohol. […] Bone nodule formation in vitro can be assessed quantitatively by various published procedures.

[2] = test system: ovariectomized rats; conditions: ovariectomized animal/rats, cited from earlier work

Row | SMILES | change in osteoblast cultures / formation of mineralized bone (FIG. 1) ([1]; 10^−8 molar, after 14 days of incubation) | stimulation of osteoblast cultures to form mineralized bone, Von Kossa stain (FIG. 2) [1] | degree of new bone formation ([1]; concentration of 10^−12 molar) | bone mass [2] | bone mass ([2]; listed as 2-methylene-19-nor-20S-1,25-(OH)2D3)
1 | C=C1/C(=C\C=C2/CCC[C@]3(C)[C@@H]([C@H](C)CCCC(C)(C)O)CC[C@@H]23)C[C@@H](O)C[C@@H]1O [1,25-(OH)2D3, 1α,25-dihydroxyvitamin D3, reference compound] | very little change | does not produce this effect |  |  | 
2 | C=C1[C@H](O)CC(=C/C=C2\CCC[C@]3(C)[C@@H]([C@@H](C)CCCC(C)(C)O)CC[C@@H]23)C[C@H]1O [2MD, 2-methylene-19-nor-(20S)-1α,25-dihydroxyvitamin D3] |  | unique and strong action | saturating degree of new bone formation | markedly stimulate bone mass accumulation | increase bone mass
3 | CC1C(O)CC(=CC=C2CCC[C@]3(C)[C@@H]([C@@H](C)CCCC(C)(C)O)CC[C@@H]23)CC1O (stereo partly drawn) [2α-methyl-19-nor-20S-1,25-(OH)2D3, 2α-methyl-19-nor-20(S)-1α,25-dihydroxyvitamin D3] |  |  |  | increase bone mass | 
